Measurements reported in patent US20090325923A1, “NEW METHOD FOR THE TREATMENT OF INFLAMMATORY DISEASES” (TOPOTARGET SWITZERLAND SA, priority 2006, published 2009).

Experiments:
[1] = test system: RAW264.7 cell line; assay: Intracellular NAD by enzymatic assay in RAW264.7 cells; type: cell-based, mouse; settings: RAW264.7 cultured overnight with FK866 plus the added substance, LPS 2 h
Experimental: (§1) (A) The mouse macrophage cell line RAW264.7 was cultured overnight with increasing doses of FK866, and then stimulated with LPS for 2 h. The culture supernatants were tested for TNF content by ELISA and intracellular NAD levels were measured by an enzymatic assay.
(§2) (B) RAW264.7 cells were cultured overnight in the presence of FK866 and the intracellular pool of NAD was restored by co-incubation of the cells with nicotinic acid (NA). Cells were then stimulated with LPS for 2 h and the culture supernatant was tested for TNF content by ELISA.
(§3) (C) RAW264.7 cells were cultured overnight in the presence of FK866 and NAD levels were maintained by culturing the cells in the presence of extracellular NAD. Cells were then stimulated with LPS for 2 h and the culture supernatant was tested for TNF content by ELISA.
as §1, with “This example illustrates the correlation between proinflammatory cytokine secretion and NAD levels in the cell.” for “(A)”
as §2, with “In another experiment,” for “(B)”, “nicotinic acid. Nicotinic” for “nicotinic”, “is a precursor of NAD, but its transformation into NAD is not dependent upon NMPRT and is thus not inhibited by FK866.” for “(NA).”
(§4) In another experiment, RAW264.7 cells were cultured overnight in the presence of FK866 and NAD levels were maintained by culturing the cells in the presence: of extra-cellular NAD. Cells were then stimulated with LPS for 2 h and the culture supernatant was tested for TNF content by ELISA.

[2] = test system: RAW264.7 cell line; assay: LPS-stimulated TNF secretion by ELISA in RAW264.7 cells; type: cell-based, mouse; settings: RAW264.7 cultured overnight with FK866 plus the added substance, LPS 2 h
Experimental: The murine RAW264.7 cell line was stimulated with LPS in the presence of FK866. TNF protein concentrations were determined by ELISA (above panel) while mRNA levels were determined by RT-PCR (below panel).
as §1, §2, §3
This example illustrates that FK866 inhibits TNFα secretion at a posttranscriptional level. The murine RAW 264.7 cell line was incubated in the presence of graded doses of FK866, stimulated with microbial products, and levels of TNFα released in the supernatant evaluated by ELISA.
as §1, with “This example illustrates the correlation between proinflammatory cytokine secretion and NAD levels in the cell.” for “(A)”
as §2, with “In another experiment,” for “(B)”, “nicotinic acid. Nicotinic” for “nicotinic”, “is a precursor of NAD, but its transformation into NAD is not dependent upon NMPRT and is thus not inhibited by FK866.” for “(NA).”
as §4

[3] = test system: Human monocytic cell line THP-1; assay: LPS-stimulated cytokine secretion by ELISA in THP-1 cells; type: cell-based
Experimental: (§5) Human monocytic cell line THP-1 was cultured overnight in the presence of graded doses of nicotinic acid (NA), a precursor of NAD, and then stimulated with lipopolysaccharide (LPS) from gram-negative bacteria for 2 h. The cell supernatant was tested for tumor necrosis factor (TNF) content by ELISA and the intracellular pool of NAD was measured by an enzymatic assay.
(§6) Human monocytic cell line THP-1, human peripheral blood mononuclear cells (PBMC), human monocyte-derived dendritic cells, or mouse peritoneal macrophages were isolated and cultured overnight with increasing doses of FK866, and then stimulated with LPS for 6 h. The culture supernatants were tested for TNF and IL-6 content by ELISA
THP-1 cells were incubated in the presence of 10 nM FK866 and graded doses of NMN. Cells were further stimulated with LPS and intracellular NAD levels and TNFα secretion were determined using standard assays.
as §5, with “This example illustrates the direct relationship between NAD levels in cells and pro-inflammatory cytokine secretion. Human” for “Human”, “of” for “of graded doses of”, “acid,” for “acid (NA),”
as §6, with “This example describes the inhibition of pro-inflammatory cytokines production by the competitive small molecular weight compound inhibitor of NMPRT, ((E)-N-[4-(1-benzoylpiperidin-4-yl)butyl]-3-(pyridin-3-yl)acrylamide, designated FK866). Human” for “Human”, “ELISA.” for “ELISA”
This example illustrates that NAMPT is the only molecular target of FK866. […]

[4] = test system: Human monocytic cell line THP-1; assay: Intracellular NAD by enzymatic assay in THP-1 cells; type: cell-based
Experimental: The human THP-1 monocytic cell line was cultured in the presence of medium or FK866 and stimulated by LPS.

[5] = test system: collagen-induced arthritis; assay: Collagen-induced arthritis (CIA) mouse model; type: in vivo; settings: FK866 10 mg/kg ip twice daily or etanercept 15 mg/kg every three days, over 15 days
[6] = THP-1, 10 nM FK866 and graded doses of NMN, LPS

NC(=O)c1ccc[n+]([C@@H]2O[C@H](COP(=O)([O-])OP(=O)(O)OC[C@H]3O[C@@H](n4cnc5c(N)ncnc54)[C@H](O)[C@@H]3O)[C@@H](O)[C@H]2O)c1 [NAD, nicotinamide adenyl dinucleotide]
NAD levels in the presence of FK866 [1]: remained high | TNF synthesis in the presence of FK866 [2]: restored

NC(=O)c1ccc[n+]([C@@H]2O[C@H](COP(=O)([O-])O)[C@@H](O)[C@H]2O)c1 [nicotinamide mononucleotide (NMN), nicotinamide mononucleotide]
TNFα production despite exposure to FK866 [3, 6]: restored | intracellular NAD levels despite exposure to FK866 [4, 6]: restored

O=C(O)c1cccnc1 [nicotinic acid]
TNF secretion ([3]; THP-1 cultured overnight with graded doses of nicotinic acid, LPS 2 h, ELISA): increased in parallel in a dose-dependent fashion | NAD levels in the presence of FK866 [1]: maintained high levels of NAD | TNF synthesis in the presence of FK866 [2]: restored | intracellular NAD levels ([4]; THP-1 cultured overnight with graded doses of nicotinic acid, LPS 2 h): increased in parallel in a dose-dependent fashion

etanercept
severity of arthritis in CIA mice [5]: P<0.05 FK866 or etanercept versus placebo
